Experimental findings from the supplement of paper PMC4649846 are described below.

For assay [1], the system named is MDA-MB-231. The following applies: incubation time: 72 h. As to the method:
(§1)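 MDA-MB-231 breast cancer cells were transfected with siBRCA1 or non-targeting siControl, then seeded 24 h later at 4000 cells/well in 384-well plates holding 198 drugs at 5 concentrations. Viability was read by CellTiter-Blue after 72 h at 37 °C. Dose-response curves were fitted in Dotmatics to give IC50 and a drug sensitivity score (DSS: area under the curve relative to the area between the 10% threshold and 100% inhibition, normalised by the log of the top response). The dose range is not stated. IC50 values of 8333.3 or 4166.7 nM mark no response (top dose), and 0.8333 nM is the lower limit.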

The subject of assay [2] is MDA-MB-231. In words: drug sensitivity score (DSS); higher = more sensitive; extreme values may be limits of the assay. The following applies: incubation time: 72 h. On the procedure:
as §1

[3] abbreviates: siRNA: siControl (non-targeting).

For `COc1ccc(-c2ccc3c(N4CCOC[C@@H]4C)nc(N4CCOC[C@@H]4C)nc3n2)cc1CO` [AZD8055], the “IC50 of cell viability” value in the assay with MDA-MB-231 [1] (siRNA: siBRCA1) stood at 45.9 nM; with MDA-MB-231 [1] (setting [3]) it was 88.8 nM. Besides, the drug sensitivity score came out at 19.1 in the assay with MDA-MB-231 [2] (siRNA: siBRCA1) and 18.2 in the assay with MDA-MB-231 [2] (setting [3]).
With `NC(=O)Nc1cc(-c2cccc(F)c2)sc1C(=O)N[C@H]1CCCNC1` [AZD 7762], the figures for the “IC50 of cell viability” value in the assay with MDA-MB-231 [1] (siRNA: siBRCA1) and with MDA-MB-231 [1] (setting [3]) were 242 nM and 582 nM, respectively. Moreover, the drug sensitivity score with MDA-MB-231 [2] (siRNA: siBRCA1) was determined as 17.4; in the assay on MDA-MB-231 [2] (setting [3]) it was 13.7.
The corresponding values for `C[C@]12CC[C@H](O)CC1=CC[C@@H]1[C@@H]2CC[C@]2(C)C(c3cccnc3)=CC[C@@H]12` [Abiraterone] are above 4170 nM, above 4170 nM, 0 and 0.
As for `CN(C)C/C=C/C(=O)Nc1cc2c(Nc3ccc(F)c(Cl)c3)ncnc2cc1O[C@H]1CCOC1` [Afatinib], the “IC50 of cell viability” value was 3350 nM in the assay on MDA-MB-231 [1] (siRNA: siBRCA1) and 1680 nM in the assay with MDA-MB-231 [1] (setting [3]). The drug sensitivity score was determined as 4.43 in the assay on MDA-MB-231 [2] (siRNA: siBRCA1) and 8.65 in the assay on MDA-MB-231 [2] (setting [3]).
Consider `Oc1ncnc2[nH]ncc12` [Allopurinol], for which the “IC50 of cell viability” value in the assay with MDA-MB-231 [1] (siRNA: siBRCA1) and in the assay with MDA-MB-231 [1] (setting [3]) was above 4170 nM each time. Further, the drug sensitivity score in the assay with MDA-MB-231 [2] (siRNA: siBRCA1) and in the assay with MDA-MB-231 [2] (setting [3]) was 0 in each case.
As for `CN(C)c1nc(N(C)C)nc(N(C)C)n1` [Altretamine], the “IC50 of cell viability” value in the assay on MDA-MB-231 [1] (siRNA: siBRCA1) and in the assay on MDA-MB-231 [1] (setting [3]) was above 4170 nM throughout. The drug sensitivity score with MDA-MB-231 [2] (siRNA: siBRCA1) and in the assay with MDA-MB-231 [2] (setting [3]) was 0 each time.
Regarding `CO[C@H]1/C=C\C=C(/C)C(=O)NC2=CC(=O)C(NCCN(C)C)=C(C[C@@H](C)C[C@H](OC)[C@H](O)[C@@H](C)/C=C(\C)[C@@H]1OC(N)=O)C2=O` [Alvespimycin], the “IC50 of cell viability” value with MDA-MB-231 [1] (siRNA: siBRCA1) is 128 nM; in the assay with MDA-MB-231 [1] (setting [3]), 75.7 nM. The drug sensitivity score with MDA-MB-231 [2] (siRNA: siBRCA1) was 20; in the assay with MDA-MB-231 [2] (setting [3]) it was 22.7.
For `CN1CC[C@H](c2c(O)cc(O)c3c(=O)cc(-c4ccccc4Cl)oc23)[C@H](O)C1` [Alvocidib], the “IC50 of cell viability” value was 181 nM in the assay with MDA-MB-231 [1] (siRNA: siBRCA1) and 150 nM in the assay with MDA-MB-231 [1] (setting [3]). The drug sensitivity score in the assay on MDA-MB-231 [2] (siRNA: siBRCA1) is 18.8; with MDA-MB-231 [2] (setting [3]), 20.2.
The corresponding values for `NCCCNCCSP(=O)(O)O` [Amifostine] are above 4170 nM, above 4170 nM, 0 and 0.
On to `CCC1(c2ccc(N)cc2)CCC(=O)NC1=O` (stereo not given) [Aminoglutethimide], for which the “IC50 of cell viability” value with MDA-MB-231 [1] (siRNA: siBRCA1) and in the assay on MDA-MB-231 [1] (setting [3]) was above 4170 nM each time. In addition, the drug sensitivity score in the assay on MDA-MB-231 [2] (siRNA: siBRCA1) and in the assay with MDA-MB-231 [2] (setting [3]) was 0 each time.
Turning to `NCC(=O)CCC(=O)O` [Aminolevulinic acid], the “IC50 of cell viability” value in the assay with MDA-MB-231 [1] (siRNA: siBRCA1) and with MDA-MB-231 [1] (setting [3]) was above 4170 nM throughout. In addition, the drug sensitivity score in the assay on MDA-MB-231 [2] (siRNA: siBRCA1) and in the assay on MDA-MB-231 [2] (setting [3]) was 0 throughout.
Turning to `CN(C)CCN1C(=O)c2cccc3cc(N)cc(c23)C1=O` [Amonafide], the “IC50 of cell viability” value was 1790 nM with MDA-MB-231 [1] (siRNA: siBRCA1) and 2160 nM with MDA-MB-231 [1] (setting [3]). In addition, the drug sensitivity score stood at 8.98 in the assay with MDA-MB-231 [2] (siRNA: siBRCA1) and 6.72 in the assay with MDA-MB-231 [2] (setting [3]).
Take `O=C1CN2Cc3c(ccc(Cl)c3Cl)N=C2N1` [Anagrelide]: the “IC50 of cell viability” value in the assay with MDA-MB-231 [1] (siRNA: siBRCA1) and with MDA-MB-231 [1] (setting [3]) was above 4170 nM each time. Further, the drug sensitivity score in the assay on MDA-MB-231 [2] (siRNA: siBRCA1) and with MDA-MB-231 [2] (setting [3]) was 0 in each case.
Consider `CC(C)(C#N)c1cc(Cn2cncn2)cc(C(C)(C)C#N)c1` [Anastrozole], for which the “IC50 of cell viability” value in the assay on MDA-MB-231 [1] (siRNA: siBRCA1) and with MDA-MB-231 [1] (setting [3]) was above 4170 nM each time. In addition, the drug sensitivity score in the assay on MDA-MB-231 [2] (siRNA: siBRCA1) and in the assay on MDA-MB-231 [2] (setting [3]) was 0 each time.
Turning to `CNC(=O)c1ccccc1Sc1ccc2c(/C=C/c3ccccn3)n[nH]c2c1` [Axitinib], the “IC50 of cell viability” value with MDA-MB-231 [1] (siRNA: siBRCA1) and with MDA-MB-231 [1] (setting [3]) was above 4170 nM throughout. In addition, the drug sensitivity score with MDA-MB-231 [2] (siRNA: siBRCA1) and with MDA-MB-231 [2] (setting [3]) was 0 each time.
